# From patent publication US11135234B2, “Effective aminoglycoside antibiotic for multidrug-resistant bacteria” (MICROBIAL CHEMISTRY RESEARCH FOUNDATION, priority 2015, dated 2021)
# Tests used:
# [1] = tested on: K. pneumoniae ATCC BAA-2146; assay: MIC, agar plate dilution method, K. pneumoniae ATCC BAA-2146; type: cell-based, Klebsiella pneumoniae; details: for minimal inhibitory concentration (MIC): K. pneumoniae ATCC BAA-2146, NDM-producing strain
# Method: (§1) As for the representative compounds of a new aminoglycoside antibiotic of the present invention described in Examples, the minimal inhibitory concentration (MIC, μg/mL) was measured for various assay strains of bacteria using an agar plate dilution method in accordance with the method described in the Japan Society of Chemotherapy.
# S. aureus RN4220 = assay: MIC, agar plate dilution method, S. aureus RN4220; type: cell-based, Staphylococcus aureus; details: for minimal inhibitory concentration (MIC): S. aureus RN4220, Sensitive bacterium
# Method: as §1
# S. marcescens GN6944 = assay: MIC, agar plate dilution method, S. marcescens GN6944; type: cell-based, Serratia marcescens; details: S. marcescens GN6944, GM-resistant
# Method: as §1
# S. aureus MF490 = assay: MIC, agar plate dilution method, S. aureus MF490; type: cell-based, Staphylococcus aureus; details: for minimal inhibitory concentration (MIC): S. aureus MF490, MRSA
# Method: as §1
# [2] = tested on: K. pneumoniae ATCC BAA-1705; assay: MIC, agar plate dilution method, K. pneumoniae ATCC BAA-1705; type: cell-based, Klebsiella pneumoniae; details: for minimal inhibitory concentration (MIC): K. pneumoniae ATCC BAA-1705, KPC-producing strain
# Method: as §1
# P. aeruginosa MSC01035 = assay: MIC, agar plate dilution method, P. aeruginosa MSC01035; type: cell-based, Pseudomonas aeruginosa; details: P. aeruginosa MSC01035, ABK-resistant
# Method: as §1
# E. faecium ATCC19434 = assay: MIC, agar plate dilution method, E. faecium ATCC19434; type: cell-based, Enterococcus faecium; details: for minimal inhibitory concentration (MIC): E. faecium ATCC19434
# Method: as §1
# E. coli JM109/pMW218 = assay: MIC, agar plate dilution method, E. coli JM109/pMW218; type: cell-based, Escherichia coli; details: for minimal inhibitory concentration (MIC): E. coli JM109/pMW218, Sensitive bacterium
# Method: as §1
# S. aureus RN4220/pMS520 = assay: MIC, agar plate dilution method, S. aureus RN4220/pMS520; type: cell-based, Staphylococcus aureus; details: for minimal inhibitory concentration (MIC): S. aureus RN4220/pMS520, MRSA
# Method: as §1
# P. aeruginosa PAO1 = assay: MIC, agar plate dilution method, P. aeruginosa PAO1; type: cell-based, Pseudomonas aeruginosa; details: for minimal inhibitory concentration (MIC): P. aeruginosa PAO1, Sensitive bacterium
# Method: as §1
# S. marcescens TH-0447 = assay: MIC, agar plate dilution method, S. marcescens TH-0447; type: cell-based, Serratia marcescens; details: for minimal inhibitory concentration (MIC): S. marcescens TH-0447, AMK-resistant
# Method: as §1
# P. aeruginosa PAO1/GN315 = assay: MIC, agar plate dilution method, P. aeruginosa PAO1/GN315; type: cell-based, Pseudomonas aeruginosa; details: for minimal inhibitory concentration (MIC): P. aeruginosa PAO1/GN315, AMK-resistant
# Method: as §1
# P. aeruginosa MSC17707 = assay: MIC, agar plate dilution method, P. aeruginosa MSC17707; type: cell-based, Pseudomonas aeruginosa; details: for minimal inhibitory concentration (MIC): P. aeruginosa MSC17707, AMK-resistant
# Method: as §1
# [3] = tested on: A. baumannii ATCC BAA-1710; assay: MIC, agar plate dilution method, A. baumannii ATCC BAA-1710; type: cell-based, Acinetobacter baumannii; details: for minimal inhibitory concentration (MIC): A. baumannii ATCC BAA-1710, MDRA
# Method: as §1
SMILES,minimal inhibitory concentration (MIC) [1],minimal inhibitory concentration (MIC) (S. aureus RN4220),minimal inhibitory concentration (MIC) (S. marcescens GN6944),minimal inhibitory concentration (MIC) (S. aureus MF490),minimal inhibitory concentration (MIC) [2],minimal inhibitory concentration (MIC) (P. aeruginosa MSC01035),minimal inhibitory concentration (MIC) (E. faecium ATCC19434),minimal inhibitory concentration (MIC) (E. coli JM109/pMW218),minimal inhibitory concentration (MIC) (S. aureus RN4220/pMS520),minimal inhibitory concentration (MIC) (P. aeruginosa PAO1),minimal inhibitory concentration (MIC) (S. marcescens TH-0447),minimal inhibitory concentration (MIC) (P. aeruginosa PAO1/GN315),minimal inhibitory concentration (MIC) (P. aeruginosa MSC17707),minimal inhibitory concentration (MIC) [3],also measured
"CNC1C(O[C@H]2OC(CO)[C@@H](NC)[C@H](O)C2O)O[C@H]2CC(N)[C@@H](O[C@@H]3C(N)C[C@@H](N)C(O)[C@H]3O)OC2C1O (stereo partly drawn) [Compound S1-f, 5-epi-4″-N-methylapramycin]",1 µg/mL,2 µg/mL,4 µg/mL,8 µg/mL,2 µg/mL,8 µg/mL,16 µg/mL,1 µg/mL,2 µg/mL,4 µg/mL,8 µg/mL,4 µg/mL,8 µg/mL,8 µg/mL,–
"CN[C@@H]1[C@@H](O[C@H]2O[C@H](CO)[C@@H](N)C[C@H]2O)O[C@H]2C[C@@H](N)[C@@H](O[C@@H]3[C@@H](N)C[C@@H](N)C[C@@H]3O)O[C@@H]2[C@@H]1O [Compound N5, 6,3″-dideoxy-5-epiapramycin]",2 µg/mL,2 µg/mL,4 µg/mL,4 µg/mL,2 µg/mL,8 µg/mL,8 µg/mL,1 µg/mL,2 µg/mL,4 µg/mL,8 µg/mL,4 µg/mL,8 µg/mL,8 µg/mL,–
"CNC1C(OC2OC(CO)C(NCCNC(=N)N)C(O)C2O)OC2CC(N)C(OC3C(N)CC(N)C(O)C3O)OC2C1O (stereo not shown) [Compound A4-k, 4″-N-guanidinoethylapramycin]",1 µg/mL,2 µg/mL,4 µg/mL,16 µg/mL,1 µg/mL,16 µg/mL,16 µg/mL,0.5 µg/mL,2 µg/mL,8 µg/mL,8 µg/mL,8 µg/mL,16 µg/mL,8 µg/mL,–
"CNC1C(O[C@H]2OC(CO)[C@@H](NC(=O)[C@@H](N)CO)[C@H](O)C2O)O[C@H]2CC(N)[C@@H](O[C@@H]3C(N)C[C@@H](N)C(O)[C@H]3O)OC2C1O (stereo partly drawn) [Compound V1-e, 4″-N-(L-seryl)apramycin]",–,–,–,–,–,–,–,–,–,–,–,–,–,–,"MIC ([1]; Klebsiella pneumoniae, ATCCBAA2146, K. pneumoniae ATCC BAA-2146, NDM-producing strain, read-out: minimal inhibitory concentration (MIC)): 2 µg/mL; MIC (S. aureus RN4220; Staphylococcus aureus, RN4220, S. aureus RN4220, Sensitive bacterium, read-out: minimal inhibitory concentration (MIC)): 8 µg/mL; MIC (S. marcescens GN6944; Serratia marcescens, read-out: minimal inhibitory concentration (MIC)): 8 µg/mL; MIC (S. aureus MF490; Staphylococcus aureus, MRSA, read-out: minimal inhibitory concentration (MIC)): 32 µg/mL; MIC ([2]; Klebsiella pneumoniae, ATCCBAA1705, K. pneumoniae ATCC BAA-1705, KPC-producing strain, read-out: minimal inhibitory concentration (MIC)): 4 µg/mL; MIC (P. aeruginosa MSC01035; Pseudomonas aeruginosa, read-out: minimal inhibitory concentration (MIC)): 8 µg/mL; MIC (E. faecium ATCC19434; Enterococcus faecium, ATCC19434, E. faecium ATCC19434, read-out: minimal inhibitory concentration (MIC)): 64 µg/mL; MIC (E. coli JM109/pMW218; Escherichia coli, JM109/PMW218, E. coli JM109/pMW218, Sensitive bacterium, read-out: minimal inhibitory concentration (MIC)): 2 µg/mL; MIC (S. aureus RN4220/pMS520; Staphylococcus aureus, MRSA, read-out: minimal inhibitory concentration (MIC), S. aureus RN4220/pMS520, MRSA): 8 µg/mL; MIC (P. aeruginosa PAO1; Pseudomonas aeruginosa, PAO1, P. aeruginosa PAO1, Sensitive bacterium, read-out: minimal inhibitory concentration (MIC)): 8 µg/mL; MIC (S. marcescens TH-0447; Serratia marcescens, TH0447, S. marcescens TH-0447, AMK-resistant, read-out: minimal inhibitory concentration (MIC)): 16 µg/mL; MIC (P. aeruginosa PAO1/GN315; Pseudomonas aeruginosa, read-out: minimal inhibitory concentration (MIC), P. aeruginosa PAO1/GN315, AMK-resistant): 8 µg/mL; MIC (P. aeruginosa MSC17707; Pseudomonas aeruginosa, MSC17707, P. aeruginosa MSC17707, AMK-resistant, read-out: minimal inhibitory concentration (MIC)): 8 µg/mL; MIC ([3]; Acinetobacter baumannii, ATCCBAA1710, A. baumannii ATCC BAA-1710, MDRA, read-out: minimal inhibitory concentration (MIC)): 16 µg/mL"
"CN[C@@H]1[C@@H](O[C@H]2O[C@H](CO)[C@@H](N)C[C@H]2O)O[C@H]2C[C@@H](N)[C@@H](O[C@H]3C[C@@H](O)[C@H](N)C[C@@H]3N)O[C@@H]2[C@@H]1O [Compound M7, 5,3″-dideoxyapramycin]",1 µg/mL,2 µg/mL,4 µg/mL,4 µg/mL,1 µg/mL,4 µg/mL,16 µg/mL,0.5 µg/mL,1 µg/mL,4 µg/mL,8 µg/mL,4 µg/mL,4 µg/mL,8 µg/mL,–
